pIC50: −log10 of the molar value. Converted amounts (≈) assume the structure as drawn.
Assays:
Escherichia coli = experiment: Antimicrobial activity against Escherichia coli after 24 hrs by disk diffusion method; type: functional
Bacillus subtilis = experiment: Antimicrobial activity against Bacillus subtilis after 24 hrs by disk diffusion method; type: functional
Micrococcus luteus = experiment: Antimicrobial activity against Micrococcus lysodeikticus after 24 hrs by disk diffusion method; type: functional
A549 = experiment: Cytotoxicity against human A549 cells after 72 hrs by MTT assay; type: functional, cell-based; conditions: A549, 72 h
HL-60 = experiment: Cytotoxicity against human HL60 cells after 72 hrs by MTT assay; type: functional, cell-based; conditions: HL-60, 72 h

| SMILES | MIC (Escherichia coli) | MIC (Bacillus subtilis) | MIC (Micrococcus luteus) | pIC50 (A549) | pIC50 (HL-60) |
| --- | --- | --- | --- | --- | --- |
| CC(C)=CCc1cccc2c(C[C@H]3C(=O)N[C@@H](C)C(=O)N3O)c[nH]c12 | – | – | – | 5.14 | – |
| COc1ccc2c(C[C@@H]3NC(=O)[C@@H]4CCCN4C3=O)c(C(=O)C=C(C)C)[nH]c2c1 [18-OXOTRYPROSTATIN A] | – | – | – | 5.89 | – |
| COc1ccc2c(c1)NC(=O)[C@@]21C=C2C(=O)N3CCC[C@H]3C(=O)N2[C@H]1C=C(C)C [SPIROTRYPROSTATIN B] | – | – | – | 5.08 | 5.01 |

Second part, led by results:

| MIC (Escherichia coli) | MIC (Bacillus subtilis) | MIC (Micrococcus luteus) | SMILES | pIC50 (A549) | pIC50 (HL-60) |
| --- | --- | --- | --- | --- | --- |
| 14.5 µM (≈ 6.25 µg/mL) | 14.5 µM (≈ 6.25 µg/mL) | 7.42 µM (≈ 3.2 µg/mL) | CC/C=C\[C@H](O)[C@H](O)C1=C(C)C(=O)[C@]2(O1)C(=O)N[C@@](OC)(C(=O)c1ccccc1)[C@@H]2O [PSEUROTIN A] | – | – |
| 10.7 µM (≈ 6.25 µg/mL) | 5.33 µM (≈ 3.13 µg/mL) | 10.7 µM (≈ 6.25 µg/mL) | CC(=O)O[C@H]1C[C@@]2(C)[C@@H](CC[C@H]3[C@@]4(C)C=CC(=O)[C@@H](C)[C@@H]4[C@H](OC(C)=O)C(=O)[C@@]32C)/C1=C(\CCCC(C)(C)O)C(=O)O | – | – |
| 3.74 µM (≈ 1.56 µg/mL) | 15 µM (≈ 6.25 µg/mL) | 7.49 µM (≈ 3.13 µg/mL) | C/C=C\[C@H](O)[C@H](O)C1=C(C)C(=O)[C@]2(O1)C(=O)N[C@@](OC)(C(=O)c1ccccc1)[C@@H]2O [14-NORPSEUROTIN A] | – | – |
| 87.9 µM (≈ 50 µg/mL) | 22 µM (≈ 12.5 µg/mL) | 11 µM (≈ 6.25 µg/mL) | CC(=O)O[C@H]1C[C@@]2(C)[C@@H](CC[C@H]3[C@@]4(C)C=CC(=O)[C@@H](C)[C@@H]4[C@H](OC(C)=O)C(=O)[C@@]32C)/C1=C(\CCC=C(C)C)C(=O)O [HELVOLIC ACID] | – | – |

From ChEMBL document CHEMBL1157412, “Cytotoxic alkaloids and antibiotic nordammarane triterpenoids from the marine-derived fungus Aspergillus sydowi” (J Nat Prod, 2008)
